Measured values reported in US20100234364A1, “CCR2 INHIBITORS AND METHODS OF USE THEREOF” (priority 2007, published 2010).

Each compound was assayed against T1, CCR2 (Homo sapiens, UniProt P41597) (assay: chemotaxis (conventional migration), ligand binding or calcium mobilization (calcium flux) assays). Settings: Table 2: activity in one of the chemotaxis.
T1 construct: chemokine expressing cells (such as THP-1 cells for CCR2 assay or MOLT-4 cells for CCR9 assay); host or cells: THP-1 cells
T1 sequence (P41597 whole entry): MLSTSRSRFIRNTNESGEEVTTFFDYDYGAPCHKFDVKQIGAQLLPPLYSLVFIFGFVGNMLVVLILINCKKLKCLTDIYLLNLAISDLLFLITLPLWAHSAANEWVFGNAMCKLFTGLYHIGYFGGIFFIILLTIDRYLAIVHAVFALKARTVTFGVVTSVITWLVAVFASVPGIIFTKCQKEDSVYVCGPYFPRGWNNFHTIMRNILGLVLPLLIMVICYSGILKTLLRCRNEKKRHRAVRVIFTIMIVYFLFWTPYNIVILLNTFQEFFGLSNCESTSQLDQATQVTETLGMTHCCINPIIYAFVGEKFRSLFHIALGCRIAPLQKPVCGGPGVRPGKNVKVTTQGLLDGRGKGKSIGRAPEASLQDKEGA
Format: cell-based
Description: THP-1 cells and MOLT-4 cells were obtained from the American Type Culture Collection (Manassas, Va.) and cultured in RPMI tissue culture medium supplemented with 10% fetal calf serum (FCS) in a humidified 5% CO2 incubator at 37° C. Recombinant human chemokine proteins MCP-1 and TECK were obtained from R&D Systems (Minneapolis, Minn.). ^125I-labeled MCP-1 protein was obtained from Amersham (Piscataway, N.J.). ChemoTX® chemotaxis microchambers were purchased from Neuro Probe (Gaithersburg, Md.). CyQUANT® cell proliferation kits were purchased from Molecular Probes (Eugene, Oreg.). Calcium indicator dye Fluo-4 AM was purchased from Molecular Devices (Mountain View, Calif.).
Conventional-migration assay was used to determine the efficacy of potential receptor antagonists in blocking migration mediated through chemokines (such as CCR2 or CCR9). This assay was routinely performed using the ChemoTX® microchamber system with a 5-μm pore-sized polycarbonate membrane. To begin such an assay, chemokine expressing cells (such as THP-1 cells for CCR2 assay or MOLT-4 cells for CCR9 assay) were harvested by centrifugation of cell suspension at 1000 RPM on a GS-6R Beckman centrifuge. The cell pellet was resuspended in chemotaxis buffer (HBSS with 0.1% BSA) at 10×10^6cells/mL for CCR2 assay (5 ×10^6cells/mL for CCR9 assay). Test compounds at desired concentrations were prepared from 10 mM stock solutions by serial dilutions in chemotaxis buffer. An equal volume of cells and compounds were mixed and incubated at room temperature for 15 minutes. Afterwards, 20 μL of the mixture was transferred onto the porous membrane of a migration microchamber, with 29 μL of chemokine ligand (0.1 nM chemokine MCP-1 protein for CCR2 assay or 50 nm chemokine TECK protein for CCR9 assay) placed at the lower chamber. Following an incubation at 37° C. (90-minute for CCR2; 150-minute for CCR9), during which cells migrated […] the chemokine gradient, the assay was terminated by removing the cell drops from atop the filter. To quantify cells migrated across the membrane, 5 μL of 7X CyQUANT® solution was added to each well in the lower chamber, and the fluorescence signal measured on a Spectrafluor Plus fluorescence plate reader (TECAN, Durham, N.C.). The degree of inhibition was determined by comparing migration signals between compound-treated and untreated cells. IC50 calculation was further performed by non-linear squares regression analysis using Graphpad Prism (Graphpad Software, San Diego, Calif.).
Calcium flux assay measures an increase in intracellular calcium following ligand-induced receptor activation. In the screen of chemokine antagonists, it was used as a secondary assay carried out on a FLIPR® machine (Molecular Devices, Mountain View, Calif.). To begin an assay, chemokine expressing cells (such as THP-1 cells for CCR2 assay or MOLT-4 cells for CCR9 assay) were harvested by centrifugation of cell suspension, and resuspended to 1.5×10^6 cells/mL in HBSS (with 1% fetal calf serum). Cells were then labeled with a calcium indicator dye Fluo-4 AM for 45 minutes at 37° C. with gentle shaking. Following incubation, cells were pelletted, washed once with HBSS and resuspended in the same buffer at a density of 1.6×10^6 cells/mL. One hundred microliters of labeled cells were mixed with 10 μL of test compound at the appropriate concentrations on an assay plate. Chemokine protein (MCP-1 at a final concentration of 0.1 nM for CCR2 assay or TECK at a final concentration of 25 nM for CCR9 assay) to activate the receptor. The degree of inhibition was determined by comparing calcium signals between compound-treated and untreated cells. IC50 calculations were further performed by non-linear squares regression analysis using Graphpad Prism (Graphpad Software, San Diego, Calif.).
Ligand binding assay was used to determine the ability of potential CCR2 antagonists to block the interaction between CCR2 and its ligand MCP-1. […]
`O=C(c1ccccc1)c1ccc(Br)cc1NS(=O)(=O)c1ccc(Cl)c(Cl)c1` [drawing 301] gave an IC50 of under 500 nM. `O=C(c1ccccc1)c1cc(Cl)ccc1NS(=O)(=O)c1ccc(Cl)c(C(F)(F)F)c1` [drawing 302] showed an IC50 of under 500 nM. In the case of `Cn1ccnc1C(O)c1cc(Cl)ccc1NS(=O)(=O)c1ccc(Cl)c(Cl)c1` (stereo not shown) [drawing 303], the IC50 is reported as under 500 nM. With `O=S(=O)(Nc1ccc(Cl)cc1-c1nnn[nH]1)c1ccc(Cl)c(Cl)c1` [drawing 304] the IC50 was under 500 nM. Compound `O=C(c1ccc(F)cc1)c1cc(Cl)ccc1NS(=O)(=O)c1ccc(Cl)c(Cl)c1` [drawing 305] has an IC50 of under 500 nM. `O=C(c1ccccc1F)c1cc(Cl)ccc1NS(=O)(=O)c1ccc(Cl)c(Cl)c1` [drawing 306] was tested, and the IC50 was under 500 nM. Compound `Cn1ccc(C(=O)c2cc(Cl)ccc2NS(=O)(=O)c2ccc(Cl)c(C(F)(F)F)c2)n1` [drawing 311] has an IC50 of under 500 nM.

Same assay, conditions: Table 3: activity in one of the chemotaxis
Compound `Cn1ccc(C(=O)c2cc(Cl)ccc2NS(=O)(=O)c2ccc(Cl)c(C(F)(F)F)c2)n1` [drawing 322] has an IC50 of 500 to 5000 nM. In the case of `O=S(=O)(Nc1ccc(Cl)cc1-c1nnn[nH]1)c1ccc(Cl)c(Cl)c1` [drawing 325], the IC50 is reported as 500 to 5000 nM. `Cn1ccnc1C(O)c1cc(Cl)ccc1NS(=O)(=O)c1ccc(Cl)c(Cl)c1` (stereo not shown) [drawing 327] was tested, and the IC50 was 500 to 5000 nM. `O=C(c1ccccc1)c1ccc(Br)cc1NS(=O)(=O)c1ccc(Cl)c(Cl)c1` [drawing 328] showed an IC50 of 500 to 5000 nM. `O=C(c1ccccc1)c1cc(Cl)ccc1NS(=O)(=O)c1ccc(Cl)cc1` [drawing 330] gave an IC50 of 500 to 5000 nM. `O=C(c1ccccc1F)c1cc(Cl)ccc1NS(=O)(=O)c1ccc(Cl)c(Cl)c1` [drawing 335] gave an IC50 of 500 to 5000 nM. Compound `O=C(c1ccc(F)cc1)c1cc(Cl)ccc1NS(=O)(=O)c1ccc(Cl)c(Cl)c1` [drawing 336] has an IC50 of 500 to 5000 nM. `O=C(c1ccccc1)c1cc(Cl)ccc1NS(=O)(=O)c1ccc(Cl)c(C(F)(F)F)c1` [drawing 337] showed an IC50 of 500 to 5000 nM. Work on `O=C(c1ccccc1)c1cc(F)ccc1NS(=O)(=O)c1ccc(Cl)c(Cl)c1` [drawing 338] yielded an IC50 of 500 to 5000 nM. `O=C(c1ccccc1)c1cc(Cl)ccc1NS(=O)(=O)c1ccc(Cl)c(Cl)c1` [drawing 342] showed an IC50 of 500 to 5000 nM. Work on `O=C(c1ccccc1)c1ccc(Cl)cc1NS(=O)(=O)c1ccc(Cl)c(C(F)(F)F)c1` [drawing 344] yielded an IC50 of 500 to 5000 nM. In the case of `O=C(c1ccc(Cl)cc1NS(=O)(=O)c1ccc(Cl)c(C(F)(F)F)c1)N1CCCCC1` [drawing 371], the IC50 is reported as 500 to 5000 nM.
